From patent US10538487B2, “Sulfonylureas and related compounds and use of same” (priority 2015, dated 2020)
Like-named read-outs stand apart in the source and are kept apart here.

Assays:
NLRP3 inflammasome [1] = target: T1, NLRP3 inflammasome (Homo sapiens, UniProt Q96P20); assay: Inhibition of IL-1β release, NLRP3 inflammasome activation assay in HMDM; assay type: cell-based
Outline: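 Primary human monocyte-derived macrophages from CD14+ buffy-coat monocytes, seeded at 1×10^5/ml. Compound added in serum-free medium 30 min before NLRP3 stimulation (ATP, nigericin, LeuLeu-OMe or MSU). Cytokine in supernatants measured by ELISA or AlphaLISA; cell death by LDH release relative to full lysis.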

NLRP3 inflammasome [2] = target: T1, NLRP3 inflammasome; assay: Inhibition of IL-18 release, NLRP3 inflammasome activation assay in HMDM; assay type: cell-based; conditions: class symbols
Description: The following assays can be used to determine inhibitory activity of test compounds on the NLRP3 inflammasome using common stimuli such as adenosine triphosphate, nigericin, LeuLeu-OMe or monosodium urate crystals (MSU).
To generate HMDM, human monocytes are isolated from buffy coat blood using Ficoll-Plaque Plus (GE Healthcare) and density centrifugation. CD14^+ cell selection is performed using MACS magnetic beads (Miltenyl Biotec).
HMDM are seeded at 1×10^5/ml. […] Medium is removed and replaced with serum free medium (SFM) containing test compound 30 min prior to NLRP3 stimulation. […] ATP can be sourced from Sigma Aldrich, nigericin and MSU from Invivogen and LeuLeu-Ome from Chem-Impex International.
For ELISA and cell death assays cells are seeded in 96 well plates. Supernatants are removed and analysed using ELISA kits according to the manufacturer's instructions (DuoSet® R&D Systems, ReadySetGo!® eBioscience, BD OptEIA™, or Perkin Elmer AlphaLISA®). Cell death is assessed by measurement of LDH release relative to a 100% cell lysis control using the CytoTox96® non-radioactive cytotoxicity assay (Promega).

[3] = Half life of CRID3 in mouse (stated in description); assay type: in vivo
NLRP3 inflammasome [4] = target: NLRP3 inflammasome (Mus musculus, UniProt Q8R4B8); assay: Inhibition of IL-1β release, NLRP3 inflammasome activation assay in BMDM; assay type: cell-based
Sequence of NLRP3 inflammasome (Mus musculus, UniProt Q8R4B8) (Q8R4B8 whole entry): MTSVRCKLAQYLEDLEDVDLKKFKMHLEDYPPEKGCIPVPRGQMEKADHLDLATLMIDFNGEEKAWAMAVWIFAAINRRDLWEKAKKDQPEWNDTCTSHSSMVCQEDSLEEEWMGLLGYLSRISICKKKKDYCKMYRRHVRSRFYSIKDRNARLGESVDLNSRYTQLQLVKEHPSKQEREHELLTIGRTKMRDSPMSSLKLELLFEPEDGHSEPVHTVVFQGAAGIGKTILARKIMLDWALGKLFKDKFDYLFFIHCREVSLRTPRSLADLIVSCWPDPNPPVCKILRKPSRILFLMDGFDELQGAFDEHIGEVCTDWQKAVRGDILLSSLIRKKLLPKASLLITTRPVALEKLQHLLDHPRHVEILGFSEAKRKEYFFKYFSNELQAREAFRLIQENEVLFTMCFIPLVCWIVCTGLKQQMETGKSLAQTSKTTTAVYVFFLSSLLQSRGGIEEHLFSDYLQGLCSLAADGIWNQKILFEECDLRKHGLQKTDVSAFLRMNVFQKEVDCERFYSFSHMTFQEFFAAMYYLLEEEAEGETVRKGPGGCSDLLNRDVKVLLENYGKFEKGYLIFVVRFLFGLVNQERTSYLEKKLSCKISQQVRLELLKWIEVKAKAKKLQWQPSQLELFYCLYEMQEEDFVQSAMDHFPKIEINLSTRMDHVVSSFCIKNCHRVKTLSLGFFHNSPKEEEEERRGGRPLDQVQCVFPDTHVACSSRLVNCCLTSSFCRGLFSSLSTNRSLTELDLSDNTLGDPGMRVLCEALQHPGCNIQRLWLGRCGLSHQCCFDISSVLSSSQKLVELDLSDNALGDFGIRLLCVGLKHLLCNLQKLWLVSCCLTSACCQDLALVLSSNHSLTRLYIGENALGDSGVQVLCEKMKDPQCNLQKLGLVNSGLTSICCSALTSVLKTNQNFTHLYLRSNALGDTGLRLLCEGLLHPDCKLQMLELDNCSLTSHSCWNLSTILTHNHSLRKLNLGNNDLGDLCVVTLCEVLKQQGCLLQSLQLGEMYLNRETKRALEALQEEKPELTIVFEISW
Outline: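 C57BL/6 mouse BMDM seeded at 1×10^5/ml were primed with E. coli K12 LPS for 3 h, then given compound in serum-free medium 30 min before NLRP3 stimulation (ATP, nigericin, LeuLeu-OMe or MSU). Released IL-1β in supernatants was measured by ELISA, and cell death by LDH release relative to full lysis.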

[5] = Compound levels in blood plasma of mice after oral gavage (LC-MS/MS); assay type: in vivo; conditions: mouse, 2 hour timepoint after oral gavage at 20 mg/Kg
Description: A series of 10-fold dilutions of the 100,000 ng/mL stock solution with 10 mM NH4HCO3 gave concentrations of 10,000, 1,000, 100 and 10 ng/mL. The 100,000 ng/mL stock solution was diluted to 3:7 with 10 mM NH4HCO3 to give a concentration of 30,000 ng/mL and a series of 10-fold dilutions gave concentrations of 3,000, 300, 30 and 3 ng/mL.
20 μL of test compound-containing solution and 160 μL precipitation solution were added to 20 μL of mouse plasma in a low binding Eppendorf tube. The samples were vortexed, allowed to stand at 4° C. for 10 mins and centrifuged at 14,000×g for 8 min. 150 μL of the supernatant was transferred to an HPLC vial insert. The samples were stored at 4° C. until analysis.
Dosing: Oral gavage at 20 mg/kg
(§1) Prepare stock compounds for dosing at 4 mg/ml in sterile PBS. Mice were weighed and dosed by oral gavage at 20 mg/kg for each compound. […]
The samples were analysed on an AB Sciex 4000QTrap MS with 2 Shimadzu Nexera LC-30AD Solvent Delivery Units, Shimadzu Nexera SIL-30AC Auto-Sampler, Shimadzu Prominence DGU-20A5 Degasser, Shimadzu Prominence CBM-20A System Controller and Shimadzu Prominence CTO-20A Column Oven. […] The peak areas from the SRM data for carbutamide and test compound were analysed using the AB Sciex's Analyst software using the Quantitation Wizard.

in vivo = conditions: mouse, brain, mice, oral gavage at 20 mg/kg
Description: The sample solutions prepared for the plasma standard curve were used for the brain homogenate standard curve.
The mouse brain homogenate from the saline control was thawed and vortexed for 3 min or until homogenous, sonicated for 1 min. When the foam settled, 50 μL of mouse brain homogenate was transferred into an Eppendorf tube, followed by 50 μL of test compound in 10 mM NH4HCO3, 150 μL of H2O and 500 μL of ice cold precipitation solution with vortexing after every addition. The standards were allowed to stand at 4° C. for 10 mins and then centrifuged at 14,000×g for 8 min. 200 μL of the supernatant was transferred to HPLC vial insert ensuring that no air bubbles were present and the samples stored at 4° C. until analysis.
Dosing: Oral gavage at 20 mg/kg
as §1
The samples were analysed on an AB Sciex 4000QTrap MS with 2 Shimadzu Nexera LC-30AD Solvent Delivery Units, Shimadzu Nexera SIL-30AC Auto-Sampler, Shimadzu Prominence DGU-20A5 Degasser, Shimadzu Prominence CBM-20A System Controller and Shimadzu Prominence CTO-20A Column Oven. […] The peak areas from the SRM data for carbutamide and test compound were analysed using the AB Sciex's Analyst software using the Quantitation Wizard. […]

[6] = inhibition of IL-1β release, class symbols, read-out: Avg. IL-1β IC50 HMDM
[7] = inhibition of IL-1β release, class symbols, read-out: Avg. IL-1β IC50 Murine BMDM
[8] = commercial compounds (Table 9), read-out: HMDM IC50 vs NLRP3
[9] = commercial compounds (Table 9), read-out: BMDM IC50 vs NLRP3
[10] = select compounds of the first aspect (Table 10), read-out: HMDM IC50 vs NLRP3
[11] = select compounds of the first aspect (Table 10), read-out: BMDM IC50 vs NLRP3

T1 sequence (Q96P20 whole entry): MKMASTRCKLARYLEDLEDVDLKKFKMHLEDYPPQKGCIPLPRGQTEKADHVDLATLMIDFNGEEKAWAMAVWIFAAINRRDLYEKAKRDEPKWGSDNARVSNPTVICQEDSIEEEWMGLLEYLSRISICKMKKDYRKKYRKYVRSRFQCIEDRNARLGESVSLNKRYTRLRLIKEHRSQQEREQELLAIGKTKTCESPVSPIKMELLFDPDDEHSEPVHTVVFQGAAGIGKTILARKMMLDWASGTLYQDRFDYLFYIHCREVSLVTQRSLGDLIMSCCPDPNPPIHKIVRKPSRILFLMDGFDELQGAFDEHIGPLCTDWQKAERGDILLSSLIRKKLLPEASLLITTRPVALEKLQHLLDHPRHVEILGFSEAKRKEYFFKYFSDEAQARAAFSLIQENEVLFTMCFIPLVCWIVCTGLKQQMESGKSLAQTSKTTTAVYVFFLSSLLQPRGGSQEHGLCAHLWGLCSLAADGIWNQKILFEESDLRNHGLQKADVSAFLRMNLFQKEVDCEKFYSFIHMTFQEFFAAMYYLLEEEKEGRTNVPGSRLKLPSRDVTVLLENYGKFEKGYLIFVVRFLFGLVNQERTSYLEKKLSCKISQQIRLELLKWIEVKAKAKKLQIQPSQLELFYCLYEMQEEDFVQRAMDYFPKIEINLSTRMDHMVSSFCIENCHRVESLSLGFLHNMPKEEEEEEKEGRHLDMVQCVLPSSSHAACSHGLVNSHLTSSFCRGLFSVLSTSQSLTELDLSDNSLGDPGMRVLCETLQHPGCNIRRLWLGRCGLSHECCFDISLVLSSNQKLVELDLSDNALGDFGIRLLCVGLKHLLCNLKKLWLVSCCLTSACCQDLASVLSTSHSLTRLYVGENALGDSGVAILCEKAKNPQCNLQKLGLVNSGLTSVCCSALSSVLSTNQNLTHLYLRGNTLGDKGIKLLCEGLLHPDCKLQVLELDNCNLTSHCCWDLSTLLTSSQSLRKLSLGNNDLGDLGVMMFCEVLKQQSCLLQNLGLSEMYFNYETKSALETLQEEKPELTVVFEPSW

Compound	IC50 (NLRP3 inflammasome [1]; [6]) [nM]	IC50 (NLRP3 inflammasome [2]) [nM]	IC50 (NLRP3 inflammasome [1]; [10]) [nM]	IC50 (NLRP3 inflammasome [4]; [11]) [nM]	other results
CC(C)(C)n1ccc(S(=O)(=O)NC(=O)Nc2c3c(cc4c2CCC4)CCC3)n1 [1-(tert-butyl)-N-((1,2,3,5,6,7-hexahydro-s-indacen-4-yl)carbamoyl)-1H-pyrazole-3-sulfonamide]	< 100	< 100	–	–	–
O=C(Nc1c2c(cc3c1CCC3)CCC2)NS(=O)(=O)c1ncn(Cc2ccccc2)n1 [1-benzyl-N-((1,2,3,5,6,7-hexahydro-s-indacen-4-yl)carbamoyl)-1H-1,2,4-triazole-3-sulfonamide]	< 100	< 100	–	–	–
CC(C)(O)c1cc(S(=O)(=O)NC(=O)Nc2c3c(cc4c2CCC4)CCC3)nn1Cc1ccccc1 [1-benzyl-N-((1,2,3,5,6,7-hexahydro-s-indacen-4-yl)carbamoyl)-5-(2-hydroxypropan-2-yl)-1H-pyrazole-3-sulfonamide]	< 100	< 100	–	–	–
CC(C)(O)c1coc(S(=O)(=O)NC(=O)Nc2c3c(cc4c2CCC4)CCC3)c1 [CRID3]	–	–	–	–	half life [3]: 3.2 h
Cn1nc(S(=O)(=O)NC(=O)Nc2c3c(cc4c2CCC4)CCC3)cc1C(C)(C)O [N-((1,2,3,5,6,7-hexahydro-s-indacen-4-yl)carbamoyl)-5-(2-hydroxypropan-2-yl)-1-methyl-1H-pyrazole-3-sulfonamide]	< 100	< 100	–	–	IC50 (NLRP3 inflammasome [4]; [7]): < 100 nM
CC(C)(O)c1cc(S(=O)(=O)NC(=O)Nc2c3c(cc4c2CCC4)CCC3)nn1-c1ccccc1 [N-((1,2,3,5,6,7-hexahydro-s-indacen-4-yl)carbamoyl)-5-(2-hydroxypropan-2-yl)-1-phenyl-1H-pyrazole-3-sulfonamide]	< 100	< 100	–	–	IC50 (NLRP3 inflammasome [4]; [7]): < 100 nM
Cc1ccc(S(=O)(=O)NC(=O)Nc2c3c(cc4c2CCC4)CCC3)o1 [N-((1,2,3,5,6,7-hexahydro-s-indacen-4-yl)carbamoyl)-5-methylfuran-2-sulfonamide]	< 100	< 100	–	–	–
Cc1ccc(S(=O)(=O)NC(=O)Nc2c3c(cc4c2CCC4)CCC3)s1 [N-((1,2,3,5,6,7-hexahydro-s-indacen-4-yl)carbamoyl)-5-methylthiophene-2-sulfonamide]	< 100	< 100	–	–	–
O=C(Nc1c2c(cc3c1CCC3)CCC2)NS(=O)(=O)c1cccs1 [N-((1,2,3,5,6,7-hexahydro-s-indacen-4-yl)carbamoyl)thiophene-2-sulfonamide]	< 100	< 100	–	–	–
CC(C)c1cccc(C(C)C)c1NC(=O)NS(=O)(=O)c1cc(C(C)(C)O)n(C)n1 [N-((2,6-diisopropylphenyl)carbamoyl)-5-(2-hydroxypropan-2-yl)-1-methyl-1H-pyrazole-3-sulfonamide]	< 100	< 100	–	–	–
NS(=O)(=O)c1cccc(S(=O)(=O)NC(=O)Nc2c3c(cc4c2CCC4)CCC3)c1 [N^1-(1,2,3,5,6,7-Hexahydros-indacen-4-ylcarbamoyl)benzene-1,3-disulfonamide]	< 100	–	–	–	IC50 (NLRP3 inflammasome [4]; [7]): < 100 nM
O=C(Nc1ccc(Cl)cc1)NS(=O)(=O)c1ccc2c(c1)CCC2 [Sulofenur, reference compound]	–	–	–	–	IC50 (NLRP3 inflammasome [1]; [8]): > 100000 nM; IC50 (NLRP3 inflammasome [4]; [9]): > 10000 nM
CCCCNC(=O)NS(=O)(=O)c1ccc(C)cc1 [Tolbutamide, reference compound]	–	–	–	–	IC50 (NLRP3 inflammasome [1]; [8]): > 200000 nM; IC50 (NLRP3 inflammasome [4]; [9]): > 200000 nM
CC(C)(O)c1coc(S(=O)(=O)NC(=O)Nc2c3c(cc4c2CCC4)CCC3)c1 [drawing 335]	–	–	–	–	concentration at 2 h [5]: 17500 ng/mL; concentration at 2 h (in vivo): 184 ng/g; Kp at 2 h (in vivo; read-out: Brain/Plasma Ratio): 0.0117
CC(C)n1ccc(S(=O)(=O)NC(=O)Nc2c3c(cc4c2CCC4)CCC3)n1 [drawing 336]	–	–	–	–	concentration at 2 h [5]: 28200 ng/mL
COc1ccc(Cl)cc1C(=O)NCCc1ccc(S(=O)(=O)NC(=O)Nc2c3c(cc4c2CCC4)CCC3)cc1 [drawing 358]	–	–	140	240	–
CCC1=C(C)CN(C(=O)NCCc2ccc(S(=O)(=O)NC(=O)Nc3c4c(cc5c3CCC5)CCC4)cc2)C1=O [drawing 360]	–	–	650	220	–
COc1ccc2c(c1)C(=O)N(CCc1ccc(S(=O)(=O)NC(=O)Nc3c4c(cc5c3CCC5)CCC4)cc1)C(=O)C2(C)C [drawing 361]	–	–	2300	260	–
Cc1cc(C(=O)NCCc2ccc(S(=O)(=O)NC(=O)Nc3c4c(cc5c3CCC5)CCC4)cc2)no1 [drawing 362]	–	–	190	280	–
CC(=O)c1ccc(S(=O)(=O)NC(=O)Nc2c3c(cc4c2CCC4)CCC3)cc1 [drawing 363]	–	–	310	36	–
Nc1ccc(S(=O)(=O)NC(=O)Nc2c3c(cc4c2CCC4)CCC3)cc1 [drawing 365]	–	–	310	14	–
O=C(Nc1c2c(cc3c1CCC3)CCC2)NS(=O)(=O)c1ccc(Cl)cc1 [drawing 366]	–	–	300	30	–
O=C(Nc1c2c(cc3c1CCC3)CCC2)NS(=O)(=O)c1ccc2c(c1)CCC2 [drawing 367]	–	–	1460	50	–
